Laboratory results as given in patent publication US8227428B2, “Anti-infammatory macrolide” (Glaxo Group Limited, priority 2009, dated 2012).

Test: Stability in buffer solutions pH 2 to pH 8 at 25° C.
Format: physicochemical
Description: Stability in buffer solutions pH 2 to pH 8 at 25° C., and in bio-relevant media (SGF pH 1.6, Fasted SIF pH 6.5 and Fed SIF pH 5.0) at 37° C., during 24 hours is monitored. The samples are analysed by LC/MS.
Buffer Solutions and Physiologically Relevant Media Used in Stability Assay:
LC Conditions: Instrument HP1100
Column: Waters XBridge C18, 2.1×50 mm, 3.5 μm
Guard column: Waters XBridge C18, 2.1×10 mm, 3.5 μm
• A) 0.1% HCOOH/H2O • B) 0.1% HCOOH/CH3CN Gradient Timetable: […]
Flow: 0.3 mL/min Column temp.: 25° C. Sample temp.: 25° C. (for stability assay in buffer solutions) • 37° C. (for stability assay in bio-relevant media) Injector volume: 3 μL (without injection program) MS Conditions: Instrument HP MS API-ES, positive ion mode Mass Range: 150-1500 Fragmentor: 100 Gain: 1.0 Treshold: 150 Step size: 0.20 Gas Temperature: 350° C. Drying Gas Flow: 13 L/min Nebulizer Pressure: 35 psig Capillary Voltage Positive 4000 V • Negative 4000 V Sample Preparation: a) For Stability Assay in Buffer Solutions
Compounds are dissolved in CH3CN to produce a 1 mg/mL stock solution. The stock solution is diluted to a concentration of 0.2 mg/mL (1 mL solution in 4 mL buffer) with appropriate buffer to produce a working solution.
Each solution at each pH is then dispatched into vials that are sealed and stored at room temperature in order to be analyzed at the proper time point. Before analysis, pH values of prepared sample solutions are checked and adjusted if neccessary.

In the case of `CC[C@H]1OC(=O)[C@H](C)[C@@H](O[C@H]2C[C@@](C)(OC)[C@@H](OC(=O)CN(CC)CC)[C@H](C)O2)[C@H](C)[C@@H](O[C@@H]2O[C@H](C)C[C@H](N(C)C)[C@H]2O)[C@](C)(OC)C[C@@H](C)C(=O)N[C@H](C)[C@@H](O)[C@]1(C)O` [Example 3, 4″-O-(2-diethylaminoethanoyl)-6-O-methyl-9a-aza-9a-homoerythromycin A], the “stability in buffers pH 2 to 8” value (25° C., during 24 hours) is reported as “showed stability”, the “Percentage (Area %) of the compound observed in buffers” value (“Percentage (Area %)” below) (pH 2, 25° C., 2 h) is reported as 99.4 Area % and the “Percentage (Area %)” value (pH 2, 25° C., 4 h) is reported as 99.5 Area %. For the same compound, the “Percentage (Area %)” value (pH 2, 25° C., 6 h) was 99.5 Area %, the “Percentage (Area %)” value (pH 2, 25° C., 8 h) was 99.5 Area % and the “Percentage (Area %)” value (pH 2, 25° C., 12 h) was 99.6 Area %. For the same compound, the “Percentage (Area %)” value (pH 2, 25° C., 14 h) was 99.6 Area %, the “Percentage (Area %)” value (pH 2, 25° C., 18 h) was 99.6 Area % and the “Percentage (Area %)” value (pH 2, 25° C., 20 h) was 99.5 Area %. The “Percentage (Area %)” value (pH 2, 25° C., 22 h) was 99.5 Area %, the “Percentage (Area %)” value (pH 2, 25° C., 24 h) was 99.5 Area % and the “Percentage (Area %)” value (pH 2, 25° C., Initial) was 100 Area %. For the same compound, the “Percentage (Area %)” value (pH 3, 25° C., 2 h) was 99.8 Area %, the “Percentage (Area %)” value (pH 3, 25° C., 4 h) was 99.6 Area % and the “Percentage (Area %)” value (pH 3, 25° C., 6 h) was 99.5 Area %. The “Percentage (Area %)” value (pH 3, 25° C., 8 h) was 99.8 Area %, the “Percentage (Area %)” value (pH 3, 25° C., 12 h) was 99.6 Area % and the “Percentage (Area %)” value (pH 3, 25° C., 14 h) was 99.8 Area %. The “Percentage (Area %)” value (pH 3, 25° C., 18 h) was 99.7 Area %, the “Percentage (Area %)” value (pH 3, 25° C., 20 h) was 99.6 Area % and the “Percentage (Area %)” value (pH 3, 25° C., 22 h) was 99.4 Area %. For the same compound, the “Percentage (Area %)” value (pH 3, 25° C., 24 h) was 99.4 Area %, the “Percentage (Area %)” value (pH 3, 25° C., Initial) was 100 Area % and the “Percentage (Area %)” value (pH 4, 25° C., 2 h) was 99.1 Area %. For the same compound, the “Percentage (Area %)” value (pH 4, 25° C., 4 h) was 99.0 Area %, the “Percentage (Area %)” value (pH 4, 25° C., 6 h) was 99.1 Area % and the “Percentage (Area %)” value (pH 4, 25° C., 8 h) was 99.2 Area %. For the same compound, the “Percentage (Area %)” value (pH 4, 25° C., 12 h) was 99.2 Area %, the “Percentage (Area %)” value (pH 4, 25° C., 14 h) was 99.2 Area % and the “Percentage (Area %)” value (pH 4, 25° C., 18 h) was 99.2 Area %. For the same compound, the “Percentage (Area %)” value (pH 4, 25° C., 20 h) was 98.9 Area %, the “Percentage (Area %)” value (pH 4, 25° C., 22 h) was 99.1 Area % and the “Percentage (Area %)” value (pH 4, 25° C., 24 h) was 99.2 Area %. For the same compound, the “Percentage (Area %)” value (pH 4, 25° C., Initial) was 100 Area %, the “Percentage (Area %)” value (pH 5, 25° C., 2 h) was 100 Area % and the “Percentage (Area %)” value (pH 5, 25° C., 4 h) was 99.9 Area %. The “Percentage (Area %)” value (pH 5, 25° C., 6 h) was 99.9 Area %, the “Percentage (Area %)” value (pH 5, 25° C., 8 h) was 99.9 Area % and the “Percentage (Area %)” value (pH 5, 25° C., 12 h) was 99.9 Area %. The “Percentage (Area %)” value (pH 5, 25° C., 14 h) was 99.9 Area %, the “Percentage (Area %)” value (pH 5, 25° C., 18 h) was 99.9 Area % and the “Percentage (Area %)” value (pH 5, 25° C., 20 h) was 99.8 Area %. For the same compound, the “Percentage (Area %)” value (pH 5, 25° C., 22 h) was 99.9 Area %, the “Percentage (Area %)” value (pH 5, 25° C., 24 h) was 99.9 Area % and the “Percentage (Area %)” value (pH 5, 25° C., Initial) was 100 Area %. For the same compound, the “Percentage (Area %)” value (pH 6, 25° C., 2 h) was 100 Area %, the “Percentage (Area %)” value (pH 6, 25° C., 4 h) was 100 Area % and the “Percentage (Area %)” value (pH 6, 25° C., 6 h) was 100 Area %. For the same compound, the “Percentage (Area %)” value (pH 6, 25° C., 8 h) was 100 Area %, the “Percentage (Area %)” value (pH 6, 25° C., 12 h) was 99.9 Area % and the “Percentage (Area %)” value (pH 6, 25° C., 14 h) was 99.8 Area %.
